The text below walks through data of patent US20030229025A1, “Intranasal administration of MC4-R agonists” (Chiron Corporation, priority 2002, published 2003).

Ends that are not written are not given here.

The conditions of assay [1]: human subjects, cited from earlier work; for body fat: intranasal administration.
For assay [2] the following is noted: acute intranasal administration; ACTH4-10 1 mg, desacetyl-αMSH 1.68 mg (equimolar); cited from earlier work.
Assay [3] deals with ob/ob mice. The experiment in a line: Intranasal (IN) efficacy: food intake in fasted ob/ob mice. The settings on record: Mus musculus, inhaled or nasal, 4 hour, read-out: % Food Intake Reduction at 4 hour. Type of assay: in vivo. On the procedure: Subjects: ob/ob mice; approximately 10 weeks old males; body weight 50-60 grams.
The mice were divided into the following groups:
1) Mice received only vehicle. The vehicle was one of the following: water, 10 mM phosphate buffer, 5% captisol in 10 mM phosphate buffer (see Table 1 for details).
2) Mice received a compound of an embodiment of the present invention at a dosage of 1 mg/kg.
3) Mice received a compound of an embodiment of the present invention at a dosage of 3 mg/kg.
4) Mice received a compound of an embodiment of the present invention at a dosage of 6 mg/kg. n=6-8 animals per group
Note: For compound 1 and compound 2, the 1 mg/kg group was not included.
Animals were fasted overnight (˜16 hours), and an MC4-R agonist compound as described in Tables 1-3 was administered at 8:30 am next day. The administration volume was […]/50 grams of body weight. The animal was gently held by one hand, and the compound solution was delivered by the other hand using a pipette with fine tips. The rate of delivery was such that the full amount was given in not less than 60 seconds to ensure maximal absorption. Pre-weighed food was given to the animals immediately after dosing, and animals had free access to water throughout the study. Food weighing was performed at 1, 2, 3, 4, and 6 hours after dosing. On occasion, food weighing was also taken at the 8 hour or 24 hour time point. Animals were euthanized using carbon dioxide followed by cervical dislocation at the end of the experiment.
Mice were fasted overnight. At 8:30 am the next morning, they were dosed with 25 μl of vehicle or compound solution by intranasal delivery. The solution was delivered using a pipette with protein loading tips. The rate of delivery was such that the full amount was given in not less than 60 seconds. Mice were fed with pre-weighed food immediately after dosing, and had access to water the entire time. Food weight was measured at 1, 2, 3, 4, 6, and 8 hours following the dosing. Mice were euthanized at the end of the study using CO2 followed by cervical dislocation.

Assay [4] has as its system ob/ob mice. The description is as above. Type of assay: in vivo. The note with it: Mus musculus, inhaled or nasal, 4 hour, read-out: % Food Intake Reduction at 4 hour. The source holds these as a separate data set.

With “desacetyl-αMSH: melanocortin peptide intranasally administered in the cited studies of Fehm et al. and Smolnik et al. (SYSMEHFRWGKPV; ends and bridges not checked; UniProt P01189 138-150, looked up)”, the body fat result in assay [1] was “nonsignificant”. Also, the “processing negativity (PN) of the ERP over frontal and central cortical areas” value in assay [2] is on record as “ineffective”.
`COc1ccc(CCN2CCc3cc(N/C(=N/[C@H]4C[C@H]5C[C@@H]([C@@H]4C)C5(C)C)N4CCN[C@@H](C)C4)ccc3C2=O)c(F)c1` [Compound 10]: in the assay on ob/ob mice [3], the inhibition in vivo at 1 mg/kg turned out to be 14.2% and the inhibition in vivo at 3 mg/kg came to 39.7%.
In the case of `C[C@@H]1[C@@H](/N=C(/Nc2ccc(C(=O)N[C@H](CO)Cc3ccc(Cl)cc3Cl)cn2)N2C[C@@H](C)N[C@@H](C)C2)C[C@H]2C[C@@H]1C2(C)C` [Compound 11], in the assay with ob/ob mice [3], the inhibition in vivo at 1 mg/kg is 27.7% and the inhibition in vivo at 3 mg/kg stood at 82%. Moreover, the inhibition in vivo at 0.5 mg/kg in the assay with ob/ob mice [4] is -3.8%.
`COc1ccc(CCNC(=O)c2ccc(N/C(=N/[C@H]3C[C@H]4C[C@@H]([C@@H]3C)C4(C)C)N3C[C@H](C)N[C@@H](C)C3)nc2)c(F)c1` [Compound 9]: in the assay with ob/ob mice [3], the inhibition in vivo at 1 mg/kg is 35.2%, the inhibition in vivo at 3 mg/kg came to 70.2% and the inhibition in vivo at 6 mg/kg stood at 69.6%.
On to “MSH/ACTH4-10: melanocyte stimulating hormone/adrenocorticotropin4-10; behaviorally active fragment of ACTH (MEHFRWG; Corticotropin; UniProt P01189 141-147, looked up, fragment)”, for which the “plasma leptin levels and insulin levels” value in assay [1] (after intranasal administration) is reported as “decreased”. Further, the body fat result in assay [1] is “reduced body fat”. In addition, the “processing negativity (PN) of the ERP over frontal and central cortical areas” value in assay [2] is “reduced the processing negativity”.
Take `Cc1ccc(CCc2nc3ccc(N/C(=N\[C@H]4C[C@H]5C[C@@H]([C@@H]4C)C5(C)C)N4CCN[C@@H](C)C4)cc3[nH]2)c(C)c1` [Compound 2]: in the assay with ob/ob mice [3], the inhibition in vivo at 3 mg/kg was 23.7% and the inhibition in vivo at 6 mg/kg is 1.7%.
`COc1ccc(CCn2cnc3cc(N/C(=N/[C@H]4C[C@H]5C[C@@H]([C@@H]4C)C5(C)C)N4CCN[C@@H](C)C4)ccc3c2=O)c(F)c1` [Compound 12]: in the assay with ob/ob mice [3], the inhibition in vivo at 1 mg/kg was found to be 22.6% and the inhibition in vivo at 3 mg/kg worked out at 47.2%. In the assay with ob/ob mice [4], the inhibition in vivo at 0.5 mg/kg was 6%.
For the compound `CCOC(=O)c1ccc(N/C(=N/[C@H]2C[C@H]3C[C@@H]([C@@H]2C)C3(C)C)N2C[C@@H](C)N[C@@H](C)C2)cc1` [Compound 8], in the assay with ob/ob mice [3], the inhibition in vivo at 1 mg/kg came out at 37.8%, the inhibition in vivo at 3 mg/kg came to 60% and the inhibition in vivo at 6 mg/kg stood at 84.1%.
Taken in the same sequence, the figures for `C[C@@H]1[C@@H](/N=C(\Nc2ccc(NC(=O)CCc3ccc(Cl)cc3Cl)cc2)N2CCN[C@@H](C)C2)C[C@H]2C[C@@H]1C2(C)C` [Compound 6] were -11.9%, 21.3% and 57.4%.
As for `COc1ccc(CCNC(=O)c2ccc(N/C(=N/[C@H]3C[C@H]4C[C@@H]([C@@H]3C)C4(C)C)N3CCN[C@@H](C)C3)cc2)c(F)c1` [Compound 1], in the assay with ob/ob mice [3], the inhibition in vivo at 3 mg/kg was 59% and the inhibition in vivo at 6 mg/kg worked out at 91.5%.
As for `C[C@@H]1[C@@H](/N=C(/Nc2ccc(C(=O)OCCc3ccc(Cl)cc3Cl)cc2)N2C[C@@H](C)N[C@@H](C)C2)C[C@H]2C[C@@H]1C2(C)C` [Compound 7], in the assay on ob/ob mice [3], the inhibition in vivo at 1 mg/kg was found to be 23.5%, the inhibition in vivo at 3 mg/kg worked out at 42.7% and the inhibition in vivo at 6 mg/kg was 85.5%.
Taken in the same sequence, the figures for `COc1ccc(CCNC(=O)c2ccc(N/C(=N/[C@H]3C[C@H]4C[C@@H]([C@@H]3C)C4(C)C)N3C[C@@H](C)N[C@@H](C)C3)cc2)c(F)c1` [Compound 3] were -3%, 63.8% and 70.3%.
Taken in the same sequence, the figures for `C[C@@H]1[C@@H](/N=C(\Nc2ccc3[nH]c(CCc4ccc(Cl)cc4Cl)nc3c2)N2CCN[C@@H](C)C2)C[C@H]2C[C@@H]1C2(C)C` [Compound 5] were 10.4%, 53.1% and 67.3%.
